The target of one experiment is CaMKIIδ (Homo sapiens, UniProt Q13557). Put plainly: in vitro inhibition of CaMKIIδ, bioluminescent ADP monitoring assay (ADP-GLO). To be noted: purified polypeptides. In kind it is biochemical. As for the experimental part: FIG. 4 provides a schematic illustrating the design of an in vitro experiment to evaluate the impact of the purified polypeptides described in FIG. 2D and shown in the left portion of FIG. 4 on CaMKIIδ (an isomer of CaMKII) activity. Activity of CaMKIIδ was measured using a bioluminescent and homogeneous ADP monitoring assay for kinases (ADP-GLO™), which is described in Zegzouti, et al. “ADP-Glo: A Bioluminescent and Homogeneous ADP Monitoring Assay for Kinases,” ASSAY and Drug Development Technologies, December 2009, 560-572, doi.org/10.1089/adt.2009.0222, the disclosure of which is incorporated herein by reference in its entirety for all purposes.
CaMKIIδ, sequence (Q13557 1-478): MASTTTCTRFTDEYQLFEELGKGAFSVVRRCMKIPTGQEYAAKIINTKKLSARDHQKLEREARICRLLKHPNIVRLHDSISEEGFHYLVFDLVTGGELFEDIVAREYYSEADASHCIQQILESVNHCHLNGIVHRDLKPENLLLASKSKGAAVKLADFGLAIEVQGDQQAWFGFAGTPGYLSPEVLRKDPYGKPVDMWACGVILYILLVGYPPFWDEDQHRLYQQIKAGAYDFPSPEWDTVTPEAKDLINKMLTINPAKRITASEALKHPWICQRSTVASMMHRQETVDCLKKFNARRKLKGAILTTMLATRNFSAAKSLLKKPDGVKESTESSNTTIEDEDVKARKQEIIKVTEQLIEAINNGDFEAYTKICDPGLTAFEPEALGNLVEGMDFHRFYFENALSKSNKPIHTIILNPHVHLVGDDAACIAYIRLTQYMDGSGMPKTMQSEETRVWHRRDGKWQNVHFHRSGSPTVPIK
Inhibition of CaMKIIδ activity by the polypeptides was evaluated using a bioluminescent and homogeneous ADP monitoring assay for kinases (ADP-GLO™), which is described in Zegzouti, et al. “ADP-Glo: A Bioluminescent and Homogeneous ADP Monitoring Assay for Kinases,” ASSAY and Drug Development Technologies, December 2009, 560-572, doi.org/10.1089/adt.2009.0222, the disclosure of which is incorporated herein by reference in its entirety for all purposes (FIG. 4).
In general terms: In ADP-Glo the light output rises with the ADP produced.

In a further experiment the test system is Tbx5 knockout mice. The experiment can be described thus: Example 5: beat-to-beat variability (EKG) in Tbx5 knockout mice (AF model). In kind it is in vivo, mouse. An excerpt: Two different atrial fibrillation (AF) mouse models were used to test the efficacy of AIP×5 at treating AF of different origins. The two different AF mouse models were liver kinase B1 (LKB1) knock out mice and T-box transcription factor 5 (Tbx5) knock out mice.
LKB1-floxed or Tbx5-floxed mice were used to test the efficacy of AIP×5. AAV-NPPA-Cre was then used to conditionally knock out LKB1 or Tbx5 from the atria of the mice. NPPA is an atria specific promoter, ensuring that Cre recombinase directed knockout of LKB1 or Tbx5 was restricted to the atria. AAV-NPPA-FP (fluorescent protein) was used as a control virus. AAV-NPPA-FP has no Cre, and therefore the gene of interest is not knocked out. Uninjected mice were also included as a control to account for any effects caused by AAV injections. AAV-cTnT-AIP×5 or AAV-cTnT-CN19o were both tested as potential therapies to AF.
In short, P3 LKB1-floxed or Tbx5-floxed mice were injected (or not injected in the uninjected controls), and then EKG measurements of the mice were taken every two weeks starting at P14. At 12 weeks, the mice were sacrificed, and the sacrificed mice were tested for protein expression.
AF was calculated using the standard deviation of the beat-to-beat timing differences. A high beat-to-beat variability when sedated was indicative of atrial misfiring. […]

The test system of experiment [1] is RYR2^R4650I/WT mouse model of CPVT. The experiment can be described thus: ectopy and induced VT in RYR2^R4650I/WT mouse model of CPVT, AAV delivery. In kind it is in vivo. An excerpt: FIGS. 2A-2G provide plots, a protein structure, schematics, a bar graph, and images showing how a therapeutic cargo containing a CaMKII inhibitor was optimized to treat catecholaminergic polymorphic ventricular tachycardia (CPVT) through altering potency, binding, and/or multimerization of the CaMKII inhibitor. FIG. 2A provides plots showing the IC50 concentrations for the autocamtide-2-related inhibitory peptide (AIP) and CN19o (Coultrap, et al. “Improving a Natural CaMKII Inhibitor by Random and Rational Design,” PLoS One, Oct. 3, 2011, doi.org/10.1371/journal.pone.0025245; and Ishida, et al, “Critical amino acid residues of AIP, a highly specific inhibitory peptide of calmodulin-dependent protein kinase II,” FEBS Letters, 427:115-118 (1998), the disclosures of which is incorporated herein by reference in its entirety for all purposes). […]
The development of improved agents for the treatment of CPVT, the CPVT treatment efficacy of polypeptides A) containing multiple repeats of AIP (FIG. 2C) or the potent CaMKII inhibitor CN19o or B) containing AIP or CN19o fused to FKBP12.6 (FIG. 2B), which binds RYR2, which is a target of CaMKII (FIG. 1A). […] The efficacy of the polypeptides in treatment of catecholaminergic polymorphic ventricular tachycardia (CPVT) was evaluated in the RYR2^R4650I/WT mouse model of CPVT as shown in FIG. 2D. […]

Entries after “also recorded” stand apart in the source; their conditions may differ.

At CaMKIIδ, “YKKALHRQEAVDALYKKALHRQEAVDALYKKALHRQEAVDALYKKALHRQEAVDALYKKALHRQEAVDAL [AIP×5]” gave an EC50 of 114 nM. In the experiment on Tbx5 knockout mice (AAV-cTnT vector, FIG. 11), the “suppression of beat-to-beat variability” value is “reduction in beat-to-beat variability; also recorded: effective in suppressing beat-to-beat variability”. Further, the “beat-to-beat variability, statistical difference to control” value in the experiment on Tbx5 knockout mice (after week 4) was “no statistically significant difference in beat-to-beat variability”. Also, in experiment [1] (AAV vector (FIG. 2F)), the “percent of mice that showed induced ventricular tachycardia (VT)” value is recorded as “reduction in instances of induced VT”. Besides, the “percent ectopy / CPVT treatment efficacy” value in experiment [1] (RYR2^R4650I/WT mice, AAV vector (FIG. 2E, 2F)) is “greatest reduction in instances of ectopy; also recorded: most effective in treating CPVT”.

The EC50 is the concentration that produces a half-maximal response. Read a low EC50 as a more potent agent.

Values taken from US20250064983A1, “COMPOSITIONS AND METHODS FOR TREATING A CARDIAC DISEASE” (The Children's Medical Center Corporation, priority 2022, published 2025).
